Source: the supplement of paper PMC10307832

Assays:
Assay in all cases: relative viability (nuclei count vs DMSO), 5 days (fraction); higher = more cells survive
AZD8055 + Trametinib = compound: COc1ccc(-c2ccc3c(N4CCOC[C@@H]4C)nc(N4CCOC[C@@H]4C)nc3n2)cc1CO [AZD8055] + CC(=O)Nc1cccc(-n2c(=O)n(C3CC3)c(=O)c3c(Nc4ccc(I)cc4F)n(C)c(=O)c(C)c32)c1 [Trametinib] (partner 0.02 µM)
Outline: (§1)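 Relative viability is defined as nuclei in treated wells over nuclei in vehicle wells. Duplicate plates were run and medians reported. Lung cancer cell lines in 1536-well plates were dosed by pin tool one day after seeding, with one drug or with a fixed anchor-drug dose plus five library-drug doses (not always all listed) in √10 steps, and nuclei were counted after 5 days.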

AZD8055 + Lapatinib = compound: COc1ccc(-c2ccc3c(N4CCOC[C@@H]4C)nc(N4CCOC[C@@H]4C)nc3n2)cc1CO [AZD8055] + CS(=O)(=O)CCNCc1ccc(-c2ccc3ncnc(Nc4ccc(OCc5cccc(F)c5)c(Cl)c4)c3c2)o1 [Lapatinib] (partner 2 µM)
Outline: as §1

AZD8055 + Phenformin = compound: COc1ccc(-c2ccc3c(N4CCOC[C@@H]4C)nc(N4CCOC[C@@H]4C)nc3n2)cc1CO [AZD8055] + N=C(N)NC(=N)NCCc1ccccc1 [Phenformin] (partner 250 µM)
Outline: as §1

AZD8055 + Olaparib = compound: COc1ccc(-c2ccc3c(N4CCOC[C@@H]4C)nc(N4CCOC[C@@H]4C)nc3n2)cc1CO [AZD8055] + O=C(c1cc(Cc2n[nH]c(=O)c3ccccc23)ccc1F)N1CCN(C(=O)C2CC2)CC1 [Olaparib] (partner 8 µM)
Outline: as §1

| Cell Line | relative viability (AZD8055 + Trametinib; first compound 0.01 µM) | relative viability (AZD8055 + Trametinib; first compound 0.03162 µM) | relative viability (AZD8055 + Trametinib; first compound 0.1 µM) | relative viability (AZD8055 + Trametinib; first compound 0.3162 µM) | relative viability (AZD8055 + Trametinib; first compound 1 µM) | relative viability (AZD8055 + Lapatinib; first compound 0.01 µM) | relative viability (AZD8055 + Lapatinib; first compound 0.03162 µM) | relative viability (AZD8055 + Lapatinib; first compound 0.1 µM) | relative viability (AZD8055 + Lapatinib; first compound 0.3162 µM) | relative viability (AZD8055 + Lapatinib; first compound 1 µM) | relative viability (AZD8055 + Phenformin; first compound 0.01 µM) | relative viability (AZD8055 + Phenformin; first compound 0.03162 µM) | relative viability (AZD8055 + Phenformin; first compound 0.1 µM) | relative viability (AZD8055 + Phenformin; first compound 0.3162 µM) | relative viability (AZD8055 + Phenformin; first compound 1 µM) | relative viability (AZD8055 + Olaparib; first compound 0.01 µM) | relative viability (AZD8055 + Olaparib; first compound 0.03162 µM) | relative viability (AZD8055 + Olaparib; first compound 0.1 µM) | relative viability (AZD8055 + Olaparib; first compound 0.3162 µM) | relative viability (AZD8055 + Olaparib; first compound 1 µM) |
| --- | --- | --- | --- | --- | --- | --- | --- | --- | --- | --- | --- | --- | --- | --- | --- | --- | --- | --- | --- | --- |
| HCC-827 | 0.499 | 0.445 | 0.364 | 0.264 | 0.258 | 0.212 | 0.201 | 0.193 | 0.141 | 0.21 | 0.426 | 0.395 | 0.416 | 0.349 | 0.288 | 0.651 | 0.523 | 0.494 | 0.281 | 0.172 |
| HCC-78 | 0.819 | 0.596 | 0.597 | 0.409 | 0.349 | 0.934 | 0.547 | 0.406 | 0.225 | 0.217 | 0.684 | 0.64 | 0.437 | 0.386 | 0.35 | 0.758 | 0.632 | 0.54 | 0.388 | 0.383 |
| NCI-H2085 | 0.535 | 0.326 | 0.282 | 0.246 | 0.295 | 0.899 | 0.514 | 0.384 | 0.334 | 0.341 | 0.739 | 0.67 | 0.417 | 0.34 | 0.314 | 0.858 | 0.822 | 0.553 | 0.387 | 0.354 |
| PC-14 | 0.743 | 0.715 | 0.179 | 0.108 | 0.138 | 0.315 | 0.204 | 0.244 | 0.16 | 0.148 | 0.857 | 0.595 | 0.284 | 0.216 | 0.167 | 0.461 | 0.401 | 0.321 | 0.163 | 0.142 |
| NCI-H2342 | 0.894 | 0.731 | 0.598 | 0.552 | 0.525 | – | – | – | – | – | 0.609 | 0.495 | 0.429 | 0.394 | 0.437 | 0.376 | 0.439 | 0.362 | 0.309 | 0.289 |
| A-427 | 0.746 | 0.577 | 0.488 | 0.351 | 0.334 | 1.12 | 1.03 | 0.865 | 0.665 | 0.546 | 0.459 | 0.381 | 0.321 | 0.25 | 0.291 | 0.718 | 0.695 | 0.611 | 0.529 | 0.431 |
| H3255 | 0.687 | 0.588 | 0.455 | 0.306 | 0.322 | 0.228 | 0.209 | 0.227 | 0.212 | 0.229 | 0.349 | 0.397 | 0.332 | 0.279 | 0.305 | 0.627 | 0.606 | 0.516 | 0.326 | 0.36 |
| HCC-44 | 0.994 | 1.16 | 0.907 | 0.802 | 0.731 | 1.09 | 0.997 | 0.769 | 0.565 | 0.443 | 0.216 | 0.197 | 0.132 | 0.158 | 0.128 | 1.03 | 1.04 | 0.957 | 0.847 | 0.861 |
| NCI-H1734 | 0.747 | 0.559 | 0.531 | 0.312 | 0.242 | 1.17 | 0.789 | 0.57 | 0.308 | 0.242 | 0.417 | 0.288 | 0.264 | 0.176 | 0.194 | 0.675 | 0.555 | 0.458 | 0.298 | 0.199 |
| NCI-H2228 | 0.507 | 0.314 | 0.211 | 0.159 | 0.199 | 1.01 | 0.709 | 0.338 | 0.219 | 0.261 | 0.307 | 0.205 | 0.188 | 0.133 | 0.212 | 0.763 | 0.432 | 0.217 | 0.187 | 0.228 |
| ABC-1 | – | – | – | – | – | 1.2 | 0.939 | 1.2 | 0.652 | 0.611 | 0.198 | 0.289 | 0.226 | 0.197 | 0.22 | 1.3 | 1.37 | 0.992 | 0.717 | 0.907 |
| COR-L23 | 0.512 | 0.528 | 0.334 | 0.127 | 0.157 | 1.36 | 0.804 | 0.741 | 0.33 | 0.219 | 0.485 | 0.373 | 0.341 | 0.213 | 0.157 | 0.408 | 0.42 | 0.277 | 0.143 | 0.141 |
| ChaGo-K-1 | 1.03 | 0.884 | 0.858 | 0.66 | 0.628 | – | – | – | – | – | 0.508 | 0.467 | 0.494 | 0.407 | 0.374 | 0.457 | 0.48 | 0.456 | 0.437 | 0.395 |
| EBC-1 | – | – | – | – | – | 0.214 | 0.213 | 0.219 | 0.231 | 0.199 | – | – | – | – | – | 0.764 | 0.51 | 0.331 | 0.227 | 0.172 |
| NCI-H441 | 0.432 | 0.452 | 0.282 | 0.229 | 0.201 | – | – | – | – | – | 0.767 | 0.574 | 0.628 | 0.27 | 0.343 | 0.691 | 0.528 | 0.359 | 0.32 | 0.249 |
| A549 | – | – | – | – | – | 0.801 | 0.651 | 0.404 | 0.307 | 0.122 | 0.175 | 0.155 | 0.1 | 0.0798 | 0.0524 | 0.279 | 0.359 | 0.21 | 0.142 | 0.0857 |
| NCI-H1703 | – | – | – | – | – | 0.798 | 0.726 | 0.879 | 0.427 | 0.313 | – | – | – | – | – | 0.751 | 0.279 | 0.326 | 0.232 | 0.182 |
| LCLC-103H | 0.628 | 0.636 | 0.469 | 0.456 | 0.425 | – | – | – | – | – | 0.307 | 0.291 | 0.268 | 0.206 | 0.224 | 0.824 | 0.634 | 0.631 | 0.47 | 0.396 |
| NCI-H1563 | – | – | – | – | – | 0.881 | 0.836 | 0.756 | 0.644 | 0.751 | 0.632 | 0.66 | 0.617 | 0.656 | 0.641 | – | – | – | – | – |
